Assay [1] deals with 786-O-Hif-Luc cells (luciferase gene driven by multiple HIF responsive elements). In words: Luciferase Assay. In kind it is cell-based. Particulars: 24 h, read-out: Mean Luciferease EC50. The procedure: A pool of infected cells were then selected against 2 μg/mL of puromycin (P8833, Sigma) for 10 days followed by limited dilution to select single clones.
Each concentration was tested in triplicate. After about 24 hours, luciferase activity was determined using ONE-Glo Luciferase Assay Reagent (E6110, Promega) following the manufacturer's recommended procedure. EC50 were calculated by using Dotmatics software.

Assay [2] deals with VEGFA concentration in medium of 786-O cells. In words: VEGF ELISA Assay. Format: cell-based. The note with it: Homo sapiens. The procedure: Each concentration had duplicated wells. About 20 hours later, medium was removed by suction and each well was supplied with 180 μL of growth medium. About 20 μl freshly-made 10× compound stocks were added to each well. […] The EC50 was calculated by GraphPad Prism using the dose-response-inhibition (four parameter) equation. The cell seeded plate was then subjected to CellTiter-Glo luminescence cell viability assay (Promega) by adding 50 μL of Celltiter Glo reagent into each well and shaking the plate for 8 minutes at 550 rpm (Thermomixer R, Eppendorf) then read luminescence signal in plate reader (3 second delay, 0.5 second/well integration time, Synergy 2 multi Detection Microplate reader) immediately.

Setting [3] is: 786-O-Hif-Luc cells, about 24 hours.
Setting [4] is: 786-0, 786-O cells, read-out: Mean VEGF ELISA EC50.
Where [5] appears, read: 786-0, read-out: Mean VEGF ELISA EC50.

Read-outs that look alike come from different tables or passages of the source.

For the compound `N#Cc1c(S(=O)(=O)C(F)(F)F)ccc(Oc2cc(F)cc(Cl)c2)c1Br` [Compound 98, 2-Bromo-3-(3-chloro-5-fluorophenoxy)-6-((trifluoromethyl)sulfonyl)benzonitrile], the concentration giving a half-maximal response (EC50) in assay [1] (setting [3]) was 3300 nM; in assay [2] (setting [4]) it was 1580 nM.
In the same order, the values of `N#Cc1cccc(Oc2ccc(S(=O)(=O)C(F)(F)F)c(C#N)c2Br)c1` [Compound 99, 2-Bromo-3-(3-cyanophenoxy)-6-((trifluoromethyl)sulfonyl)benzonitrile] are 420 nM and 550 nM.
Take `O=S(=O)(c1ccc(Oc2cc(F)cc(Cl)c2)c(C(F)F)c1)C(F)(F)F` [Compound 124, 1-(3-Chloro-5-fluorophenoxy)-2-(difluoromethyl)-4-((trifluoromethyl)sulfonyl)benzene]: the results for the 50% effective concentration (EC50) in assay [1] and in assay [2] (setting [5]) were 330 nM and 400 nM, respectively.
With `N#Cc1cc(F)cc(Oc2ccc(S(=O)(=O)C(F)F)cc2Br)c1` [Compound 132, 3-(2-Bromo-4-((difluoromethyl)sulfonyl)phenoxy)-5-fluorobenzonitrile], the figures for the 50% effective concentration (EC50) in assay [1] (setting [3]) and in assay [2] (setting [4]) were 1400 nM and 680 nM, respectively.
`O=S(=O)(c1ccc(Oc2cc(F)cc(Cl)c2)c2c1[C@H](O)C(F)(F)C2)C(F)F` [Compound 158, (1S)-4-(3-Chloro-5-fluoro-phenoxy)-7-(difluoromethylsulfonyl)-2,2-difluoro-indan-1-ol]: the EC50 in assay [1] (setting [3]) stood at 5 nM; in assay [2] (setting [4]), 6 nM.
In the same order, the values of `CS(=O)(=O)c1ccc(Oc2cc(F)cc(F)c2)c2c1C(O)C(F)(F)C2` (centres unmarked) [Compound 159, 4-(3,5-Difluorophenoxy)-2,2-difluoro-7-(methylsulfonyl)-2,3-dihydro-1H-inden-1-ol] are 5 nM and 7 nM.
The corresponding values for `CS(=O)(=O)c1ccc(Oc2cc(F)cc(F)c2)c2c1[C@H](O)C(F)(F)C2` [Compound 161, (S)-4-(3,5-Difluorophenoxy)-2,2-difluoro-7-(methylsulfonyl)-2,3-dihydro-1H-inden-1-ol] are 4 nM and 11 nM.
In the same order, the values of `N#Cc1cc(F)cc(Oc2ccc(S(=O)(=O)C(F)(F)F)c3c2CC(F)(F)[C@H]3O)c1` [Compound 185, (S)-3-((2,2-Difluoro-1-hydroxy-7-((trifluoromethyl)sulfonyl)-2,3-dihydro-1H-inden-4-yl)oxy)-5-fluorobenzonitrile] are 3 nM and 4 nM.
Consider `O=S(=O)(c1ccc(Oc2cncc(Cl)c2)c2c1[C@H](O)C(F)(F)C2)C(F)(F)F` [Compound 186, (S)-4-((5-Chloropyridin-3-yl)oxy)-2,2-difluoro-7-((trifluoromethyl)sulfonyl)-2,3-dihydro-1H-inden-1-ol], for which the EC50 was determined as 11 nM in assay [1] (setting [3]) and 13 nM in assay [2] (setting [4]).
The corresponding values for `O=S(=O)(CF)c1ccc(Oc2cc(F)c(F)c(F)c2)c2c1[C@H](O)C(F)(F)C2` [Compound 188, (S)-2,2-Difluoro-7-((fluoromethyl)sulfonyl)-4-(3,4,5-trifluorophenoxy)-2,3-dihydro-1H-inden-1-ol] are 51 nM and 88 nM.
In the same order, the values of `CS(=O)(=NC#N)c1ccc(Oc2cc(F)cc(F)c2)c2c1C(O)C(F)(F)C2` (centres unmarked) [Compound 191, N-((7-(3,5-difluorophenoxy)-2,2-difluoro-3-hydroxy-2,3-dihydro-1H-inden-4-yl)(methyl)(oxo)-λ^6-sulfanylidene)cyanamide] are 53 nM and 130 nM.
For `O=S(=O)(c1ccc(Oc2ccc(F)c(F)c2)c2c1[C@H](O)C(F)(F)C2)C(F)F` [Compound 196, (S)-7-((Difluoromethyl)sulfonyl)-4-(3,4-difluorophenoxy)-2,2-difluoro-2,3-dihydro-1H-inden-1-ol], the results for the half-maximal effective concentration (EC50) in assay [1] (setting [3]) and in assay [2] (setting [4]) were 46 nM and 47 nM, respectively.
Take `O=[N+]([O-])c1c(Oc2cc(F)cc(Cl)c2)ccc(C(F)(F)F)c1Cl` [Compound 203, 2-Chloro-4-(3-chloro-5-fluorophenoxy)-3-nitro-1-(trifluoromethyl)benzene]: the EC50 in assay [1] (setting [3]) is 630 nM; in assay [2] (setting [4]) it was 700 nM.
On to `N#Cc1cncc(Oc2ccc(S(=O)(=O)C(F)(F)F)c3c2C[C@@H](F)[C@H]3O)c1` [Compound 225, 5-(((1S,2R)-2-Fluoro-1-hydroxy-7-((trifluoromethyl)sulfonyl)-2,3-dihydro-1H-inden-4-yl)oxy)nicotinonitrile], for which the values for the concentration for a half-maximal effect (EC50) in assay [1] (setting [3]) and in assay [2] (setting [4]) were 25 nM and 69 nM, respectively.
With `N#Cc1cc(Oc2ccc(S(=O)(=O)C(F)(F)F)c3c2CC(F)(F)[C@H]3O)ccc1F` [Compound 228, (S)-5-((2,2-Difluoro-1-hydroxy-7-((trifluoromethyl)sulfonyl)-2,3-dihydro-1H-inden-4-yl)oxy)-2-fluorobenzonitrile], the half-maximal effective concentration (EC50) turned out to be 33 nM in assay [1] (setting [3]) and 28 nM in assay [2] (setting [4]).
Consider `O=S(=O)(c1ccc(Oc2ccc(F)cc2)c2c1[C@H](O)C(F)(F)C2)C(F)(F)F` [Compound 230, (S)-2,2-Difluoro-4-(4-fluorophenoxy)-7-((trifluoromethyl)sulfonyl)-2,3-dihydro-1H-inden-1-ol], for which the EC50 is 16 nM in assay [1] (setting [3]) and 29 nM in assay [2] (setting [4]).
The corresponding values for `O=S(=O)(c1ccc(Oc2ccc(F)c(F)c2)c2c1[C@H](O)C(F)(F)C2)C(F)(F)F` [Compound 233, (S)-4-(3,4-Difluorophenoxy)-2,2-difluoro-7-((trifluoromethyl)sulfonyl)-2,3-dihydro-1H-inden-1-ol] are 13 nM and 15 nM.
Take `CS(=O)(=O)c1ccc(Oc2cc(Cl)cc(C#N)c2)c2c1[C@H](O)C(F)(F)C2` [Compound 234, (S)-3-Chloro-5-((2,2-difluoro-1-hydroxy-7-(methylsulfonyl)-2,3-dihydro-1H-inden-4-yl)oxy)benzonitrile]: the results for the EC50 in assay [1] and in assay [2] (setting [5]) were 41 nM and 50 nM, respectively.
Turning to `N#Cc1cccc(Oc2ccc(S(=O)(=O)C(F)F)c3c2CC(F)(F)[C@H]3O)c1` [Compound 236, (S)-3-((7-((difluoromethyl)sulfonyl)-2,2-difluoro-1-hydroxy-2,3-dihydro-1H-inden-4-yl)oxy)benzonitrile], the 50% effective concentration (EC50) amounted to 11 nM in assay [1] (setting [3]) and 16 nM in assay [2] (setting [4]).
The corresponding values for `N#Cc1cc(Oc2ccc(S(=O)(=O)C(F)(F)F)c3c2CC(F)(F)[C@H]3O)c[n+]([O-])c1` [Compound 267, (S)-3-cyano-5-((2,2-difluoro-1-hydroxy-7-((trifluoromethyl)sulfonyl)-2,3-dihydro-1H-inden-4-yl)oxy)pyridine 1-oxide] are 160 nM and 830 nM.
The corresponding values for `N#Cc1cc(F)cc(Oc2ccc(C(F)(F)F)c3c2CC(F)(F)[C@H]3O)c1` [Compound 273, 3-[(1S)-2,2-Difluoro-1-hydroxy-7-(trifluoromethyl)indan-4-yl]oxy-5-fluoro-benzonitrile] are 4.6 nM and 6.2 nM.
On to `CS(=O)(=O)c1ccc(Oc2cc(F)cc(C#N)c2)c2c1[C@H](O)C(F)(F)[C@@H]2F` [Compound 292, 3-fluoro-5-[(1S,3R)-2,2,3-trifluoro-1-hydroxy-7-methylsulfonyl-indan-4-yl]oxy-benzonitrile], for which the EC50 in assay [1] (setting [3]) turned out to be 3.1 nM; in assay [2] (setting [4]), 6.2 nM.
The corresponding values for `N#Cc1cncc(Oc2ccc(C(F)(F)F)c3c2CC(F)(F)[C@H]3O)c1` [Compound 303, 5-[(1S)-2,2-difluoro-1-hydroxy-7-(trifluoromethyl)indan-4-yl]oxypyridine-3-carbonitrile] are 35 nM and 64 nM.
In the same order, the values of `CS(=O)(=O)c1ccc(Oc2cc(F)cc(Br)c2)c2c1[C@H](O)C(F)(F)C2` [Compound 304, (S)-4-(3-bromo-5-fluorophenoxy)-2,2-difluoro-7-(methylsulfonyl)-2,3-dihydro-1H-inden-1-ol] are 22 nM and 62 nM.
Regarding `O=S(=O)(c1ccc(Oc2cncc(F)c2)c2c1[C@H](O)C(F)(F)C2)C(F)(F)F` [Compound 309, (S)-2,2-difluoro-4-((5-fluoropyridin-3-yl)oxy)-7-((trifluoromethyl)sulfonyl)-2,3-dihydro-1H-inden-1-ol], the EC50 in assay [1] (setting [3]) stood at 9 nM; in assay [2] (setting [4]), 26 nM.
In the same order, the values of `O=S(=O)(c1ccc(Oc2cc(F)c[n+]([O-])c2)c2c1[C@H](O)C(F)(F)C2)C(F)(F)F` [Compound 310, (S)-3-((2,2-difluoro-1-hydroxy-7-((trifluoromethyl)sulfonyl)-2,3-dihydro-1H-inden-4-yl)oxonio)-5-fluoropyridine 1-oxide] are 110 nM and 140 nM.
Regarding `CS(=O)(=O)c1ccc(Oc2cncc(C#N)c2)c2c1[C@H](O)C(F)(F)C2` [Compound 325, (S)-5-((2,2-Difluoro-1-hydroxy-7-(methylsulfonyl)-2,3-dihydro-1H-inden-4-yl)oxy)nicotinonitrile], the 50% effective concentration (EC50) in assay [1] (setting [3]) came to 490 nM; in assay [2] (setting [4]), 150 nM.
In the same order, the values of `CS(=O)(=O)c1ccc(Oc2cncc(C#N)c2)c2c1[C@H](O)C(F)(F)[C@@H]2F` [Compound 342, 5-(((1S,3R)-2,2,3-trifluoro-1-hydroxy-7-(methylsulfonyl)-2,3-dihydro-1H-inden-4-yl)oxy)nicotinonitrile] are 91 nM and 52 nM.

These data come from patent US10597366B2, “Aryl ethers and uses thereof” (Peloton Therapeutics, Inc., priority 2013, dated 2020).
